Several values for one entry are separate records, joined by “and”; a condition that tells them apart may be missing. Identical values can stand only once. Entries after “also recorded” stand apart in the source; their conditions may differ.
Experiments:
[1] = system: DU145 cells; assay: Apoptosis assay (Annexin V-APC/PI flow cytometry); type: cell-based, human; conditions: for Apoptosis (%): replicates
[2] = system: PC-3 cells; assay: Apoptosis assay (Annexin V-APC/PI flow cytometry); type: cell-based, human; conditions: for Apoptosis (%): PC-3, replicates
[3] = system: DU145 cells; assay: Invasion assay (transwell); type: cell-based, human; conditions: for Cell invasion (cell number): replicates
[4] = system: PC-3 cells; assay: Invasion assay (transwell); type: cell-based, human; conditions: for Cell invasion (cell number): PC-3, replicates
[5] = system: 22Rv1 cells; assay: Migration assay (transwell); type: cell-based, human; conditions: for Cell migration (cell number): replicates
[6] = system: DU145 cells; assay: Migration assay (transwell); type: cell-based, human; conditions: for Cell migration (cell number): replicates
[7] = system: PC-3 cells; assay: Migration assay (transwell); type: cell-based, human; conditions: for Cell migration (cell number): PC-3, replicates
[8] = system: 22Rv1 cells; assay: Invasion assay (transwell); type: cell-based, human; conditions: for Cell invasion (cell number): replicates
[9] = system: 22Rv1 cells; assay: Anti-proliferation activity assay (CCK8, 72 h); type: cell-based, human; conditions: for Relative proliferation rate (%) mean / Relative proliferation rate (%) / optical density: 22Rv1; for Relative proliferation rate (%) / optical density: replicates
[10] = system: DU145 xenograft; assay: In vivo antitumor activity, DU145 xenograft mouse model; parameters: species or system BALB/c nude mice; conditions: for Tumor weight (Fig. 7c): individual mice; for Tumor volume (Fig. 7a): in cm³ (unit assumed)
[11] = YK-2-69 (100 mg/kg), Day 37, individual mice, 100 mg/kg
[12] = YK-2-69 (100 mg/kg), Day 39, individual mice, 100 mg/kg
[13] = YK-2-69 (100 mg/kg), Day 41, individual mice, 100 mg/kg
[14] = YK-2-69 (100 mg/kg), Day 43, individual mice, 100 mg/kg
[15] = YK-2-69 (100 mg/kg), Day 45, individual mice, 100 mg/kg
[16] = YK-2-69 (100 mg/kg), Day 49, individual mice, 100 mg/kg
[17] = YK-2-69 (200 mg/kg), Day 1, individual mice, 200 mg/kg
[18] = YK-2-69 (200 mg/kg), Day 5, individual mice, 200 mg/kg

## CCN1CCN(C(=O)c2ccc(Nc3ncc(F)c(-c4ccc5nc(N(C)C)sc5c4)n3)nc2)CC1 [YK-2-69]
[1]; DU145, 2 μM
  Apoptosis (%): 9.32% and 10.11% and 8.62%
[1]; DU145, 4 μM
  Apoptosis (%): 11.15% and 12.55% and 13.62%
[1]; DU145, 8 μM
  Apoptosis (%): 26.62% and 31.08% and 30.25%
[1]; DU145 cells, concentration-dependent
  apoptosis (in words): significant increase of the apoptotic cell population
[2]; 0.5 µM
  Apoptosis (%): 5.98% and 6.29% and 6.68%
[2]; 1 µM
  Apoptosis (%): 7.85% and 8.04% and 8.54%
[2]; 2 µM
  Apoptosis (%): 12.28% and 13.62% and 14.23%
[2]; PC-3 cells, concentration-dependent
  apoptosis (in words): significant increase of the apoptotic cell population
[3]; DU145, 2 μM
  Cell invasion (cell number): 340 cell number and 358 cell number and 328 cell number
[3]; DU145, 4 μM
  Cell invasion (cell number): 258 cell number and 240 cell number and 252 cell number
[3]; DU145, 8 μM
  Cell invasion (cell number): 87 cell number and 91 cell number and 82 cell number
[3]; DU145 cells, dose-dependent
  invasion (in words): remarkably inhibited the migration and invasion
[4]; 1 µM
  Cell invasion (cell number): 2987 cell number and 3005 cell number and 2946 cell number
[4]; 2 µM
  Cell invasion (cell number): 2589 cell number and 2699 cell number and 2710 cell number
[4]; 4 µM
  Cell invasion (cell number): 489 cell number and 503 cell number and 468 cell number
[4]; PC-3 cells, dose-dependent
  invasion (in words): remarkably inhibited the migration and invasion
[5]; 22Rv1, 0.5 μM
  Cell migration (cell number): 1803 cell number and 1758 cell number and 1920 cell number
[5]; 22Rv1, 1 μM
  Cell migration (cell number): 710 cell number and 690 cell number and 736 cell number
[5]; 22Rv1, 2 μM
  Cell migration (cell number): 422 cell number and 380 cell number and 416 cell number
[5]; 22Rv1 cells, dose-dependent
  migration (in words): remarkably inhibited the migration and invasion
[6]; DU145, 2 μM
  Cell migration (cell number): 3879 cell number and 3920 cell number and 3723 cell number
[6]; DU145, 4 μM
  Cell migration (cell number): 2567 cell number and 2678 cell number and 2788 cell number
[6]; DU145, 8 μM
  Cell migration (cell number): 1578 cell number and 1677 cell number and 1723 cell number
[6]; DU145 cells, dose-dependent
  migration (in words): remarkably inhibited the migration and invasion
[7]; 1 µM
  Cell migration (cell number): 189 cell number and 176 cell number and 199 cell number
[7]; 2 µM
  Cell migration (cell number): 110 cell number and 105 cell number and 98 cell number
[7]; 4 µM
  Cell migration (cell number): 69 cell number and 65 cell number and 74 cell number
[7]; PC-3 cells, dose-dependent
  migration (in words): remarkably inhibited the migration and invasion
[8]; 22Rv1, 0.5 μM
  Cell invasion (cell number): 990 cell number and 970 cell number and 1020 cell number
[8]; 22Rv1, 1 μM
  Cell invasion (cell number): 730 cell number and 680 cell number and 710 cell number
[8]; 22Rv1, 2 μM
  Cell invasion (cell number): 520 cell number and 490 cell number and 509 cell number
[8]; 22Rv1 cells, dose-dependent
  invasion (in words): remarkably inhibited the migration and invasion
[9]; 0.0049 uM
  Relative proliferation rate (%) mean: 8.6252%
  Relative proliferation rate (%): 6.856% and 10.4024% and 8.617%
  optical density: 0.951 and 0.913 and 0.912
[9]; 0.078 uM
  Relative proliferation rate (%) mean: 28.6346%
  Relative proliferation rate (%): 32.9089% and 24.3376% and 28.6573%
  optical density: 0.685 and 0.771 and 0.712
[9]; 0.3125 uM
  Relative proliferation rate (%) mean: 33.639%
  Relative proliferation rate (%): 36.3369% and 30.9127% and 33.6673%
  optical density: 0.65 and 0.704 and 0.662
[9]; 1.25 uM
  Relative proliferation rate (%) mean: 55.2648%
  Relative proliferation rate (%): 58.57% and 51.9136% and 55.3106%
  optical density: 0.423 and 0.49 and 0.446
[9]; 5 uM
  Relative proliferation rate (%) mean: 68.233%
  Relative proliferation rate (%): 72.38% and 64.0824% and 68.2365%
  optical density: 0.282 and 0.366 and 0.317
[9]; 20 uM
  Relative proliferation rate (%) mean: 73.6982%
  Relative proliferation rate (%): 76.5916% and 70.7556% and 73.7475%
  optical density: 0.239 and 0.298 and 0.262
[9]; 80 uM
  Relative proliferation rate (%) mean: 89.3325%
  Relative proliferation rate (%): 93.7316% and 84.8871% and 89.3788%
  optical density: 0.064 and 0.154 and 0.106
[9]; 22Rv1 cells
  inhibitory activity against proliferation (in words): potent inhibitory activity
[10]; DU145 xenograft, 200 mg/kg orally once a day
  body weight of mice (in words): increased gradually
[10]; DU145 xenograft, 200 mg/kg orally once a day, seven weeks, 200 mg/kg
  antitumor activity (in words): much better antitumor activities than both enzalutamide and palbociclib; also recorded: decreased the volume of tumor since the 31st day
[10]; High dose, in g (unit assumed)
  Tumor weight (Fig. 7c): 0.51 and 0.47 and 0.43 and 0.45 and 0.62 and 0.73 and 0.69 and 0.41
[10]; Low dose, in g (unit assumed)
  Tumor weight (Fig. 7c): 1.34 and 1.32 and 1.29 and 1.36 and 1.47 and 1.24 and 1.68 and 1.73 and 1.54 and 1.49
[10]; [11]
  Body weight (Fig. 7b): 26.5 and 24.2 and 25.7 and 25.5 (2×) and 24.9 and 24.6 and 25.2 and 25.6 and 26.6
  Tumor volume (Fig. 7a): 0.9849 and 0.8117 and 1.322 and 0.8631 and 0.9203 and 0.6445 and 0.8644 and 1.073 and 1.152 and 1.1772
[10]; [12]
  Body weight (Fig. 7b): 26.2 and 24.5 and 25.9 and 25.8 (2×) and 25.3 and 24.9 and 25.4 and 26 and 26.8
  Tumor volume (Fig. 7a): 0.957 and 0.8113 and 1.305 and 0.8461 and 0.9452 and 0.6025 and 0.7668 and 1.032 and 1.21 and 1.322
[10]; [13]
  Body weight (Fig. 7b): 26.4 and 24.6 and 26.1 and 25.8 and 25.6 (2×) and 25.2 and 26.3 and 26 and 26.5
  Tumor volume (Fig. 7a): 1.01 and 0.8586 and 1.367 and 0.9073 and 0.9955 and 0.6291 and 0.7765 and 1.063 and 1.256 and 1.304
[10]; [14]
  Body weight (Fig. 7b): 26.7 and 25 and 26.3 (2×) and 25.9 (2×) and 25.4 and 26.5 and 25.7 and 26.6
  Tumor volume (Fig. 7a): 1.081 and 0.9018 and 1.428 and 0.9736 and 1.066 and 0.6924 and 0.8141 and 1.105 and 1.304 and 1.393
[10]; [15]
  Body weight (Fig. 7b): 26.9 (2×) and 25.2 and 26.7 and 26.2 and 26.3 and 25.7 and 26.8 and 25.9 and 26.5
  Tumor volume (Fig. 7a): 1.137 and 0.9183 and 1.533 and 1.03 and 1.104 and 0.7734 and 0.8511 and 1.184 and 1.29 and 1.475
[10]; YK-2-69 (100 mg/kg), Day 47, individual mice, 100 mg/kg
  Tumor volume (Fig. 7a): 1.209 and 0.991 and 1.624 and 1.045 and 1.005 and 0.829 and 0.881 and 1.225 and 1.336 and 1.553
[10]; YK-2-69 (100 mg/kg), Day 47, individual mice, 100 mg/kg, in g (unit assumed)
  Body weight (Fig. 7b): 27.2 and 25.5 and 26.9 and 26.3 and 26.6 and 25.8 and 27.1 and 26 and 26.8 and 27.4
[10]; [16]
  Body weight (Fig. 7b): 27.5 and 25.8 and 27.1 (3×) and 26.6 and 26.9 and 26.1 and 27.3 and 26.2
  Tumor volume (Fig. 7a): 1.289 and 1.004 and 1.711 and 1.157 and 1.055 and 0.8821 and 0.8937 and 1.296 and 1.303 and 1.663
[10]; [17]
  Body weight (Fig. 7b): 19.6 and 20.5 and 20.2 (2×) and 19.9 and 20.3 and 20.7 and 21.4 and 21 and 20
  Tumor volume (Fig. 7a): 0.07862 and 0.07877 and 0.07202 and 0.06915 and 0.0797 and 0.06867 and 0.07232 and 0.09045 and 0.0645 and 0.09096
[10]; YK-2-69 (200 mg/kg), Day 3, individual mice, 200 mg/kg
  Tumor volume (Fig. 7a): 0.1045 and 0.1116 and 0.1049 and 0.08973 and 0.1165 and 0.1011 and 0.1007 and 0.1453 and 0.08834 and 0.1272
[10]; YK-2-69 (200 mg/kg), Day 3, individual mice, 200 mg/kg, in g (unit assumed)
  Body weight (Fig. 7b): 19.9 and 20.6 and 20.5 and 20.2 and 20.7 and 21.5 and 21.3 and 20.3 and 20.1
[10]; YK-2-69 (200 mg/kg), Day 3, individual mice, in g (unit assumed)
  Body weight (Fig. 7b): 21
[10]; [18]
  Body weight (Fig. 7b): 20.2 and 20.9 and 20.8 and 20.4 and 21.1 (2×) and 21.8 and 21.6 and 20.3 and 20.5
  Tumor volume (Fig. 7a): 0.1323 and 0.1488 and 0.1486 and 0.1179 and 0.1568 and 0.1343 and 0.1497 and 0.2074 and 0.1183 and 0.1702
